We go through 21 molecules from ChEMBL document CHEMBL1201862, “PubChem BioAssay data set” (2004).

Calls of active or inactive are those of the source.

For orientation: AC50 means the midpoint of the concentration-response curve, whichever way the signal moves. As usually defined, the EC50 is the midpoint of the concentration-response curve.

Data set [1] has as its target T1, Calpain-2 catalytic subunit (Sus scrofa, UniProt P43367).
T1 sequence (P43367 whole entry): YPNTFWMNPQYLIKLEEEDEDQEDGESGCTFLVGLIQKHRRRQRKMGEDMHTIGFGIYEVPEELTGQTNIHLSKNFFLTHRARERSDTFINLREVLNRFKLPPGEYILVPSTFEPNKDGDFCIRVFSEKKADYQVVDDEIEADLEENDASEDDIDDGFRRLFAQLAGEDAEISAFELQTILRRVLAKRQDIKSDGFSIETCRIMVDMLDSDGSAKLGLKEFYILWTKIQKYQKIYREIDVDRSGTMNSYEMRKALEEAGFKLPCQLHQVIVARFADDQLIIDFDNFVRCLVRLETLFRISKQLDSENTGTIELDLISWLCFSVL
As to the kind of experiment: m-calpain protease blockers, concentration series – biochemical, fluorogenic peptide substrate, dose response (AID 1420). It counts as functional.

Data set [2] addresses Heat shock protein HSP 90-alpha (Homo sapiens, UniProt P07900). It counts as functional, organism-based.
Data set [3] has as its target Peroxisome proliferator-activated receptor gamma/Nuclear receptor coactivator 1 (Homo sapiens, UniProt P37231). As to the kind of experiment: TR-FRET dose response biochemical High Throughput Screening assay for agonists of the steroid receptor coactivator 1 (SRC-1) recruitment by the peroxisome proliferator-activated receptor gamma (PPAR gamma): non-selective agonists. [Related pubchem assays (depositor defined):AID1300, AID1808, AID504735, AID631]. It is filed as protein assay.

In data set [4] the target is Peroxisome proliferator-activated receptor gamma/Nuclear receptor coactivator 3 (Homo sapiens, UniProt P37231). As to the kind of experiment: TR-FRET dose response biochemical High Throughput Screening assay for agonists of the steroid receptor coactivator 3 (SRC-3) recruitment by the peroxisome proliferator-activated receptor gamma (PPAR gamma): non-selective agonists. [Related pubchem assays: 1301 (Confirmation screen.), 1048 (Primary screen.)]. It is filed as functional. (In general: Time-resolved FRET reads energy transfer from a long-lived donor to a nearby acceptor.)

Data set [5] deals with Peroxisome proliferator-activated receptor gamma/Nuclear receptor coactivator 2 (Homo sapiens, UniProt P37231). Briefly: TR-FRET dose response biochemical High Throughput Screening assay for agonists of the steroid receptor coactivator 2 (SRC-2) recruitment by the peroxisome proliferator-activated receptor gamma (PPAR gamma): non-selective agonists. [Related pubchem assays: 1297, 1032 ]. It is filed as functional.

Data set [6] concerns the target T2, Cytochrome P450 1A2 (Homo sapiens, UniProt P05177).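 Note: PubChem cytochrome P450 panel assay, CYP1A2 panel member.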
T2 sequence (P05177 whole entry): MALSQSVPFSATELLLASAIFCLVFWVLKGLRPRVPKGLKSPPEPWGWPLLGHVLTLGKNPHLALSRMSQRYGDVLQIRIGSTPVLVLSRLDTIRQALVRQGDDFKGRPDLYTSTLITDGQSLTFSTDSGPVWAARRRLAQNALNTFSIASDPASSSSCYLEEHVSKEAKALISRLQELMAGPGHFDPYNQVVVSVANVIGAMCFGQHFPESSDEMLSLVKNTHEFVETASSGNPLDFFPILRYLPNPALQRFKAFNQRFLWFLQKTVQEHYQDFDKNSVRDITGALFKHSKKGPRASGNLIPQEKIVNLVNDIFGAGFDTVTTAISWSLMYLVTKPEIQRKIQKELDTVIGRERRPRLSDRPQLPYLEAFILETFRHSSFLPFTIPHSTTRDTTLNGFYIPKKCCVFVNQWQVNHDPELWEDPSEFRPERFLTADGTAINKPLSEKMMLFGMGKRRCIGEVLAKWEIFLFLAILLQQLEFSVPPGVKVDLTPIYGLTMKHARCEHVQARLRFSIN

The target of data set [7] is Cytochrome P450 2C9 (Homo sapiens, UniProt P11712).
For data set [8], the target named is T3, Replicative DNA helicase DnaB (Mycobacterium tuberculosis, UniProt P9WMR3).
T3 sequence (P9WMR3 whole entry): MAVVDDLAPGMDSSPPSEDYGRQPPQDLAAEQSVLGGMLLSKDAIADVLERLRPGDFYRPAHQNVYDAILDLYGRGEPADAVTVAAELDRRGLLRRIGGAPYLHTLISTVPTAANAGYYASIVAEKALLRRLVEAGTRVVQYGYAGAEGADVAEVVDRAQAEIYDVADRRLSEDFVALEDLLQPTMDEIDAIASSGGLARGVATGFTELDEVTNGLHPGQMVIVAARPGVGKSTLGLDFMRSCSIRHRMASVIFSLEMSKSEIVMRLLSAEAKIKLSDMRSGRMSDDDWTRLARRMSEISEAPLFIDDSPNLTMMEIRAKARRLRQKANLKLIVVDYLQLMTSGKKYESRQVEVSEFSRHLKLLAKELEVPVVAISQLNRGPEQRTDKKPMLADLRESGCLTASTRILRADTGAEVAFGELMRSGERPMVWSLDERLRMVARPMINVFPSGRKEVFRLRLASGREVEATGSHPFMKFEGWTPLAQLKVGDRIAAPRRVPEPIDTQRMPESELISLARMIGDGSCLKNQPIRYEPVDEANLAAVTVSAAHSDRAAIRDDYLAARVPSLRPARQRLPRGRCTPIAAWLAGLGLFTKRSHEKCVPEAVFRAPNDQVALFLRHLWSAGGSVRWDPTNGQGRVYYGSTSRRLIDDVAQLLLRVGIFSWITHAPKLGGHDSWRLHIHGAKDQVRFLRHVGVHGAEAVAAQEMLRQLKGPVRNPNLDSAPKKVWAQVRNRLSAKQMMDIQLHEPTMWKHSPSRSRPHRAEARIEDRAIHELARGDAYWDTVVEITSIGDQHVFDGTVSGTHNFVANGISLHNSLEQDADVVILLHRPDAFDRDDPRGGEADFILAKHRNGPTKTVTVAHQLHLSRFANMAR
Briefly: DnaB intein splicing inhibitors, dose response, biochemical, cell-free fluorescence (AID 449749). It is filed as functional.

In data set [9] the target is T4, Protein RecA (Mycobacterium tuberculosis, UniProt P9WHJ3).
T4 sequence (P9WHJ3 whole entry): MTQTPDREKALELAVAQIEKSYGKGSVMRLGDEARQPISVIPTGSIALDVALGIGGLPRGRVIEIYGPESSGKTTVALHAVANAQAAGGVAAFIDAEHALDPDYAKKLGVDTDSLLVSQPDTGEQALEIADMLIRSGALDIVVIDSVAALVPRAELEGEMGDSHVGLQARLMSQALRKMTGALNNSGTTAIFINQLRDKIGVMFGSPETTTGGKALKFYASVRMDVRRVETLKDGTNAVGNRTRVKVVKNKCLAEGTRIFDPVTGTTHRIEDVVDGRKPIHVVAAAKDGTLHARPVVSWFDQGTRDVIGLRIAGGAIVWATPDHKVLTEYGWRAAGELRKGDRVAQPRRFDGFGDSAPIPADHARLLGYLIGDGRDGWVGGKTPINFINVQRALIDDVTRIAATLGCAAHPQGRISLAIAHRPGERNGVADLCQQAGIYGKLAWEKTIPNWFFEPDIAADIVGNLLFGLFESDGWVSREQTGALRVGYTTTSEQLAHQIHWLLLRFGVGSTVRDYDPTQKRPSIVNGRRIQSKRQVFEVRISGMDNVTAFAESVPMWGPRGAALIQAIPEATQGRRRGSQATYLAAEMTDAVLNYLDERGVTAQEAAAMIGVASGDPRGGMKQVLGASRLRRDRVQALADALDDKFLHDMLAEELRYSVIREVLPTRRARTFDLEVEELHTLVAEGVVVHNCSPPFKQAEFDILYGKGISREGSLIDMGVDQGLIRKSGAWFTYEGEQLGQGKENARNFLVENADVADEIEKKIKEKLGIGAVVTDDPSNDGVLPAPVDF
As to the kind of experiment: Fluorescence Cell-Free Homogeneous Dose Retest to Identify Inhibitors of RecA-Intein Splicing Activity. [Related pubchem assays (depositor defined):AID2097, AID2223, AID489010, AID492950]. It is filed as functional.

The target in data set [10] is Cytochrome P450 2D6 (Homo sapiens, UniProt P10635).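 Note: CYP2D6 member of a cytochrome P450 panel assay.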
Data set [11] deals with Cytochrome P450 2C19 (Homo sapiens, UniProt P33261). As to the kind of experiment: Cytochrome panel assay with activity outcomes. Panel member name: p450-cyp2c19 Compounds with AC50 equal or less than 10 uM are considered active. It counts as functional. The conditions noted are these: read-out: AC50.
A short description of data set [12]: Luminescence Cell-Based Dose Retest to Confirm Inhibitors of Cancer Stem Cells. [Related pubchem assays (depositor defined):AID2717, AID2721]. It counts as functional. The conditions noted are these: Homo sapiens.
Data set [13] is described as follows: NIH-3T3 fibroblast cytotoxicity, dose response, cytotoxicity control, cell-based, fluorescence, Alamar Blue, secondary assay (AID 2327).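 Note: NIH-3T3 mouse fibroblasts cultured with fluconazole at 8 µg/mL.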 It counts as functional. (Resazurin is reduced to fluorescent resorufin, in cell work by metabolically active cells.)
Data set [14] has as its system Streptococcus sp. 'group A'. Briefly: Streptococcus pyogenes SK(-)GAS viability under kanamycin – luminescence, BacTiterGlo, confirmation, counter-screen for streptokinase expression inhibitor project, dose response (AID 1900). It is filed as functional, organism-based. (A counterscreen serves to expose hits that act by an unwanted route or on another target.)
Data set [15] in a line: fluconazole-exposed Candida albicans growth modulators – fluorescence, retest, confirmation (AID 2467). It is filed as functional, cell-based.
Data set [16] deals with Streptococcus. As to the kind of experiment: GAS UMAA2166 growth inhibition – luminescence, BacTiterGlo, counter-screen for streptokinase expression inhibitor project, dose response (AID 1915).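 Note: potency for reduction of bacterial viability or growth.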 It is filed as functional, organism-based.
In data set [17] the target is T5, Polyadenylate-binding protein 1 (Homo sapiens, UniProt P11940). Briefly: MLLE binding blockers, Cy5 peptide tracer – biochemical, fluorescence polarization, Cy5-PAM2 peptide, secondary, miRNA deadenylation inhibitor project, dose response (AID 602260). To be noted: read-out: IC50_Mean. It counts as functional.
The target of data set [18] is T5, Polyadenylate-binding protein 1. As to the kind of experiment: MLLE domain peptide-binding blockers, IC50 – biochemical, fluorescence polarization, FITC-PAM2 peptide, dose response (AID 602259). It counts as functional. To be noted: read-out: IC50_Mean.

Cytochrome P450 2C9, sequence (P11712 whole entry): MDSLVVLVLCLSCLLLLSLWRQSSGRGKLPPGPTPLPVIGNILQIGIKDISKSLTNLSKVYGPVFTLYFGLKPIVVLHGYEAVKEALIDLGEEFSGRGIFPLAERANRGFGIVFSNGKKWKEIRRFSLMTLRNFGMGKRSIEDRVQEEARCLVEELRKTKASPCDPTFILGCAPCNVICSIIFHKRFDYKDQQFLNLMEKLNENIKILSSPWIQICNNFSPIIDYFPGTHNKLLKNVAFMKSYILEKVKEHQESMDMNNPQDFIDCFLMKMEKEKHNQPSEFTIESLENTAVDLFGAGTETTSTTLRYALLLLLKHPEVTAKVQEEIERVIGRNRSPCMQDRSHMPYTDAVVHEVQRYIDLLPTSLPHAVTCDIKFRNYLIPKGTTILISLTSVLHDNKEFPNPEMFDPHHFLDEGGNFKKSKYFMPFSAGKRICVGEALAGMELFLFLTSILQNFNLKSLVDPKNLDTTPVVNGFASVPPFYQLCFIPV
Peroxisome proliferator-activated receptor gamma/Nuclear receptor coactivator 1, sequence (P37231 whole entry): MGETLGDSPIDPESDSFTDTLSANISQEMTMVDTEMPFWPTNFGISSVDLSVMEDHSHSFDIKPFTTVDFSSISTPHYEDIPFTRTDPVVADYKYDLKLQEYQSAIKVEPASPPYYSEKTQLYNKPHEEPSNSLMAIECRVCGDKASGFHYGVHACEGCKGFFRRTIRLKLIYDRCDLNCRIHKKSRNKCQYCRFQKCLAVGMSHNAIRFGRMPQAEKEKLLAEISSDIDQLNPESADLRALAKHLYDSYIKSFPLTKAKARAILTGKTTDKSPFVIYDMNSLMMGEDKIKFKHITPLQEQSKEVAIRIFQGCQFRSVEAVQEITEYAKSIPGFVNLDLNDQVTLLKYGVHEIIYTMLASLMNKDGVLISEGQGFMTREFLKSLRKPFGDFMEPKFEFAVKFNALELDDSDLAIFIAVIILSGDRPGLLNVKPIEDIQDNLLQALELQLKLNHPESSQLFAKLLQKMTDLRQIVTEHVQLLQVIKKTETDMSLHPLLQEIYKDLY
Peroxisome proliferator-activated receptor gamma/Nuclear receptor coactivator 1, sequence (Q15788 whole entry, further chain): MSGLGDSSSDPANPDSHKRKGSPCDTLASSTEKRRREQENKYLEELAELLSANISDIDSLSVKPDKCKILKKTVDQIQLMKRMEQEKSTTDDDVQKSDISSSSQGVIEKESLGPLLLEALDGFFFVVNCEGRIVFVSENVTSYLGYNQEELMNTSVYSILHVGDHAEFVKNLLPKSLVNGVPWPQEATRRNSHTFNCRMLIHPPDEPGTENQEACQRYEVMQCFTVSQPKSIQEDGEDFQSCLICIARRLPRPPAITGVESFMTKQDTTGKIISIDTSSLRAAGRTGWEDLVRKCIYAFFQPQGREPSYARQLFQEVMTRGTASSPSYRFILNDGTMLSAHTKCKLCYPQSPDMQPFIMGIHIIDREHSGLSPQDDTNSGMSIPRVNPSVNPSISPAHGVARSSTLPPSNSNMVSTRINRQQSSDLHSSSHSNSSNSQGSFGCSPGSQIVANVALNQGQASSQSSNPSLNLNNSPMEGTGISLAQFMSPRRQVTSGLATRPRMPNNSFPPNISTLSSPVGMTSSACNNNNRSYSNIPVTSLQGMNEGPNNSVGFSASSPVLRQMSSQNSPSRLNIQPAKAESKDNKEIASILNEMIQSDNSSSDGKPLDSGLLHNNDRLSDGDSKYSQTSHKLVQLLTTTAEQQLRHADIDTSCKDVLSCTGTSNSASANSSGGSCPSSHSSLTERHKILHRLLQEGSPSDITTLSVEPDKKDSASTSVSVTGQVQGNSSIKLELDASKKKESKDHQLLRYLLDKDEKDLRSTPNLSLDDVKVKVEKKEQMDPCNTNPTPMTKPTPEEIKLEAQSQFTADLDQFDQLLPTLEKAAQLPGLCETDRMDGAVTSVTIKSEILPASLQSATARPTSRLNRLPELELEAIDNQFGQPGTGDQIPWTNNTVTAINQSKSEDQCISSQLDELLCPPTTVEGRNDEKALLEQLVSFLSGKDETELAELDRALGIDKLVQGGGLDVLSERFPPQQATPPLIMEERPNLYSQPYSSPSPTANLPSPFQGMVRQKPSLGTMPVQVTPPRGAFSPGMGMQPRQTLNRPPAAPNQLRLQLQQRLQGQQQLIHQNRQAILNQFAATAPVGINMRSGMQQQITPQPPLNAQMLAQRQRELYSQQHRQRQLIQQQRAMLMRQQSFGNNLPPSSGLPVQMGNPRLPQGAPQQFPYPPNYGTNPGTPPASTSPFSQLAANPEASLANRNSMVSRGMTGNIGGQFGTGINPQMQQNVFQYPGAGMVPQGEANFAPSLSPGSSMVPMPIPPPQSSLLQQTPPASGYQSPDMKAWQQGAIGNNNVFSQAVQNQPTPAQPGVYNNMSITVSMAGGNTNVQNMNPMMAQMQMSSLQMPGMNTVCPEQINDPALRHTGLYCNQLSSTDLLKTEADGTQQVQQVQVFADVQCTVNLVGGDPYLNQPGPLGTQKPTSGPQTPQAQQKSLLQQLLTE
Peroxisome proliferator-activated receptor gamma/Nuclear receptor coactivator 3, sequence (P37231 whole entry): as the sequence (P37231 whole entry) above
Peroxisome proliferator-activated receptor gamma/Nuclear receptor coactivator 3, sequence (Q9Y6Q9 whole entry, further chain): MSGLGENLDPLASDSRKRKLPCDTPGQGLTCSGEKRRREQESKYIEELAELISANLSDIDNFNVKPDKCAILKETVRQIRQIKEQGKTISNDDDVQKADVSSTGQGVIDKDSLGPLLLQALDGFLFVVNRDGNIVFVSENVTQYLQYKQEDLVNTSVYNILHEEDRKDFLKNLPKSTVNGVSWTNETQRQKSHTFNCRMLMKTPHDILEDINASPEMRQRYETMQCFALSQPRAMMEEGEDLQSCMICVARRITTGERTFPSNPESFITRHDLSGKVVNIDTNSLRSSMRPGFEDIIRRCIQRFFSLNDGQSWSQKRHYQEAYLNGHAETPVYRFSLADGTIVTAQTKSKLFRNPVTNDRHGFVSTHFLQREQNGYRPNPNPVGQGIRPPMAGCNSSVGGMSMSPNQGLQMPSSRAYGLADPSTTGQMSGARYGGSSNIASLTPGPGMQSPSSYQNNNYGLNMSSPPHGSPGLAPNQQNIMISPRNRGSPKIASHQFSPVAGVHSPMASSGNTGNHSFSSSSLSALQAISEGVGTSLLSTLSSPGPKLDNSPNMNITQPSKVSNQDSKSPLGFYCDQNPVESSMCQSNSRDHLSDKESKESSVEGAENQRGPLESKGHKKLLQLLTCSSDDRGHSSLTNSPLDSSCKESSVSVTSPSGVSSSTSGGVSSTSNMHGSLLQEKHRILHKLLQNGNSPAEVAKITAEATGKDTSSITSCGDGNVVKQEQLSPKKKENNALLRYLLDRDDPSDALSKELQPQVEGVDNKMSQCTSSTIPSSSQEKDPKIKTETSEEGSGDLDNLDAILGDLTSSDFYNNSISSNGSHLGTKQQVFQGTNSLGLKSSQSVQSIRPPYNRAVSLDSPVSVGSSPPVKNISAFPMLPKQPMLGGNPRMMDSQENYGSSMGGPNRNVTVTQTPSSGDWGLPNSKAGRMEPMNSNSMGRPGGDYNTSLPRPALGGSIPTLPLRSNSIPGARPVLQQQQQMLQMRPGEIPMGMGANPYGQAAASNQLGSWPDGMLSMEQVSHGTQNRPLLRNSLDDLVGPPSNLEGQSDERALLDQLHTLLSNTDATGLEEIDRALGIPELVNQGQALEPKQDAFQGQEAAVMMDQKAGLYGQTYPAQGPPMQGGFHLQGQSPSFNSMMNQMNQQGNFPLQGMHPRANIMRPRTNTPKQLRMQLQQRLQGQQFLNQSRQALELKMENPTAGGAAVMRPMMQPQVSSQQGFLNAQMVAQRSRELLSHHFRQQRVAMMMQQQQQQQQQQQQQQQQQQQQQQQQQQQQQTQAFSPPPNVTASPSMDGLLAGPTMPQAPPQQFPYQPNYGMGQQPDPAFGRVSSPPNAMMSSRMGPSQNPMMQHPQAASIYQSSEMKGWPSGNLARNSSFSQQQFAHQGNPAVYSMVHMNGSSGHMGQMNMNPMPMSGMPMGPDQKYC
Cytochrome P450 2D6, sequence (P10635 whole entry): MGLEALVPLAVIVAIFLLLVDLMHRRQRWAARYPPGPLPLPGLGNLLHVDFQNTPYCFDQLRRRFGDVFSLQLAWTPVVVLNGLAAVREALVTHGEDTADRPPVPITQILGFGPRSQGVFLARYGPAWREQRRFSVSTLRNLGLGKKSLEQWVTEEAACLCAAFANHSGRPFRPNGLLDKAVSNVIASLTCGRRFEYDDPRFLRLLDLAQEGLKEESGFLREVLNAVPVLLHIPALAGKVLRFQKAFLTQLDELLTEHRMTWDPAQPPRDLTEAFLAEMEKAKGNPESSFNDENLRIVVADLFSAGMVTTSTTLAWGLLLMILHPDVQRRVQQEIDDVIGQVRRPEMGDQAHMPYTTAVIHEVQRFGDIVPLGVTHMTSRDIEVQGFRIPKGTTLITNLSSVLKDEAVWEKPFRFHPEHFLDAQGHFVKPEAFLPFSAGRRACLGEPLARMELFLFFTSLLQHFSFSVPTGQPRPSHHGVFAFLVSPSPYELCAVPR

Turning to `O=C(Nc1nc(-c2ccc(Cl)cc2)cs1)C1CCCO1` (centres undefined), the IC50 in data set [1] is 19.1 µM (not active).
Consider `COCC(=O)n1nc(NCc2ccc(OC)cc2)nc1NCc1ccc(OC)cc1`, for which the AC50 in data set [2] is 8.12 µM (active).
In the case of `O=C(Cc1ccccc1)Nc1nnc(-c2ccco2)s1`, the values for the EC50 in [3], in data set [4] and in data set [5] were > 79.4 µM (inactive), > 79.4 µM (not active) and > 79.4 µM (not active), respectively.
On to `Cc1c(Br)cc(C(=O)NC2CCCCC2)c(C)c1C`, for which the AC50 in data set [6] is 3.55 µM (inconclusive); in [7] it was “inconclusive”.
Consider `Cc1cc(NC(=O)CSc2nnc(-c3ccncc3)n2N)ccc1Br`, for which the IC50 in data set [1] was > 50 µM (not active).
On to `O=C/C(=N\Nc1ccccc1)C(=O)c1ccc(Cl)cc1`, for which the AC50 in data set [2] was 3.15 µM (active).
Turning to `CCOc1ccc(N2C(=O)/C(=C\c3ccccc3OC)S(=O)(=O)C2c2cccc([N+](=O)[O-])c2)cc1` (centres undefined), the concentration at half-maximal activity (AC50) in data set [2] was 26.2 µM (active).
Regarding `O=c1oc2cc(Oc3c([N+](=O)[O-])cc(C(F)(F)F)cc3[N+](=O)[O-])ccc2c2c1CCCC2`, the AC50 in data set [8] was > 380 µM (inactive); in [10], 11.2 µM (inconclusive); in [7] it was “inconclusive”. Moreover, the EC50 in data set [9] was 1.55 µM (active).
On to `O=C(Nc1ccc(N=Nc2ccccc2)cc1)c1ccc(Cl)cc1Cl`, for which the half-maximal activity concentration (AC50) in data set [11] is 39.8 µM (inconclusive); in data set [7], “inconclusive”.
Take `COc1ccc2sc(-c3ccccc3OC)c(-c3ccc(O)cc3)c2c1`: the figures for the AC50 in [12] and in data set [2] were 4.27 µM (active) and 5.35 µM (active), respectively.
With `COc1ccc(NC(=O)c2ccc(=O)oc2)cc1`, in data set [1], the IC50 is on record as 11.5 µM (not active).
Turning to `Cc1ccc(OCCCn2c(=O)sc3ccccc32)cc1`, the values for the AC50 in data set [10] and in data set [7] were 14.1 µM (inconclusive) and “inconclusive”, respectively.
For the molecule `Cc1cccc(C)c1OCC(=O)NNC(=S)NC(=O)C1CC1`, the EC50 was > 160 µM (inactive) in data set [13], 0.412 µM (active) in data set [14], 1.66 µM (active) in [15] and 7.38 µM (active) in data set [16]. The AC50 in data set [2] is 1.15 µM (active).
Take `COCCCn1c(=S)[nH]c2sc3c(c2c1=O)CCCS3`: the EC50 in [3] is 66.8 µM (inactive); in [4], > 79.4 µM (not active); in data set [5], 26.7 µM (not active).
`O=C(COC(=O)CCc1ccccc1)NC12CC3CC(CC(C3)C1)C2`: the IC50 in [1] is on record as 19.6 µM (not active).
With `CCN(CC)S(=O)(=O)c1ccc(C(=O)NCc2ccc3c(c2)cc(C)n3C)cc1`, the EC50 in data set [3] is 6.6 µM (active); in [4], 15.3 µM (not active); in data set [5] it was 6.71 µM (active). The IC50 in data set [17] and in data set [18] was > 66 µM (inactive) in each case.
On to `O=C(CCOc1ccccc1)Nc1ccc(S(=O)(=O)N2CCCC2)cc1`, for which the IC50 in data set [1] is 26.4 µM (not active).
Still for that read-out and setting: in the case of `COC(=O)c1ccc(N2C(=O)C3CC(C)=C(C)CC3C2=O)cc1` (centres undefined) it was 10.9 µM (not active).
On to `COc1ccc(C2=NN(C(=N)S)C(c3ccccc3)C2)cc1` (centres undefined), for which the figures for the EC50 in data set [3], in [4] and in data set [5] were 8.24 µM (active), > 79.4 µM (not active) and 8.07 µM (active), respectively.
In the case of `CC1=CC=CN2CC(O)CN=C12.Cl` (centres undefined), the AC50 result in [7] is “inconclusive”.
Turning to `COc1ccc(CNC(=O)CSc2cc(=O)n(C)c3ccccc23)cc1`, the figures for the EC50 in data set [3], in data set [4] and in data set [5] were > 79.4 µM (inactive), > 79.4 µM (not active) and > 79.4 µM (not active), respectively.
